ChEMBL document CHEMBL1121904, “Potential antitumor agents. 35. Quantitative relationships between antitumor (L1210) potency and DNA binding for 4'-(9-acridinylamino)methanesulfon-m-anisidide analogues” (J Med Chem, 1981)

Columns and labels:
[1] = test system: Calf thymus DNA; settings: Bos taurus
Description: Association constant measured for binding towards poly[d(A-T)] of DNA in calf thymus

[2] = physchem
Description: Ionisation constant (pKa)

Log K [1]	pKa [2]	SMILES
5.26	–	COc1cc(NS(C)(=O)=O)ccc1Nc1c2ccccc2nc2c(C(=O)NCC(O)CO)cccc12 (stereo not given)
5.27	–	COc1cc(NS(C)(=O)=O)ccc1Nc1c2ccccc2nc2ncccc12
5.66	7.65	CCc1ccc2c(Nc3ccc(NS(C)(=O)=O)cc3OC)c3ccccc3nc2c1
5.57	6.09	COc1cc(NS(C)(=O)=O)ccc1Nc1c2ccccc2nc2c(Br)cccc12
5.95	7.7	COc1cc(NS(C)(=O)=O)ccc1Nc1c2ccccc2nc2cc(C)ccc12
6.24	–	COc1cc(NS(C)(=O)=O)ccc1Nc1c2ccccc2nc2cc(NC(C)=O)ccc12
6.35	6.77	COc1cc(NS(C)(=O)=O)ccc1Nc1c2ccccc2nc2cc(I)ccc12
5.39	7.4	COc1cc(NS(C)(=O)=O)ccc1Nc1c2ccccc2nc2ccc(C(C)C)cc12
5.65	7.15	C=NC(=O)CCc1cccc2c(Nc3ccc(NS(C)(=O)=O)cc3OC)c3ccccc3nc12
5.4	–	CCCCNC(=O)c1cccc2c(Nc3ccc(NS(C)(=O)=O)cc3OC)c3ccccc3nc12
5.94	7.39	COc1cc(NS(C)(=O)=O)ccc1Nc1c2ccccc2nc2c(OC)cccc12
5.83	7.81	COc1ccc2c(Nc3ccc(NS(C)(=O)=O)cc3OC)c3ccccc3nc2c1
5.35	7.45	COc1cc(NS(C)(=O)=O)ccc1Nc1c2ccccc2nc2ccc(C)cc12
5.66	6.66	COc1cc(NS(C)(=O)=O)ccc1Nc1c2ccccc2nc2cc(C(N)=O)ccc12
5.76	6.11	COc1cc(NS(C)(=O)=O)ccc1Nc1c2ccccc2nc2c(Cl)cccc12
5.8	7.35	CNC(=O)COc1cccc2c(Nc3ccc(NS(C)(=O)=O)cc3OC)c3ccccc3nc12
5.46	7.66	COc1cc(NS(C)(=O)=O)ccc1Nc1c2ccccc2nc2cc(C(C)C)ccc12
5.74	7.36	COc1cc(NS(C)(=O)=O)ccc1Nc1c2ccccc2nc2c(OCCCC(N)=O)cccc12
5.77	7.37	CCOc1cccc2c(Nc3ccc(NS(C)(=O)=O)cc3OC)c3ccccc3nc12
4.96	6.03	COc1cc(NS(C)(=O)=O)ccc1Nc1c2ccccc2nc2c(C(=O)N3CCOCC3)cccc12
5.28	6.71	COc1cc(NS(C)(=O)=O)ccc1Nc1c2ccccc2nc2ccc(F)cc12
6.37	7.77	COC(=O)Nc1ccc2c(Nc3ccc(NS(C)(=O)=O)cc3OC)c3ccccc3nc2c1
5.42	6.27	COc1cc(NS(C)(=O)=O)ccc1Nc1c2ccccc2nc2c(C(=O)NCCO)cccc12
5.47	–	COc1cc(NS(C)(=O)=O)ccc1Nc1c2ccccc2nc2c(C(N)=O)cccc12

Log K [1]	pKa [2]	SMILES
5.9	7.3	COc1cc(NS(C)(=O)=O)ccc1Nc1c2ccccc2nc2c(OCC(O)CO)cccc12 (stereo not given)
6.29	6.84	COc1cc(NS(C)(=O)=O)ccc1Nc1c2ccccc2nc2cc(Br)ccc12
5.65	6.33	COc1cc(NS(C)(=O)=O)ccc1Nc1c2ccccc2nc2c(F)cccc12
6.21	9.92	COc1cc(NS(C)(=O)=O)ccc1Nc1c2ccccc2nc2cc(N)ccc12
5.34	6.2	COc1cc(NS(C)(=O)=O)ccc1Nc1c2ccccc2nc2c(C(=O)NCC(C)O)cccc12 (stereo not given)
6.17	10.1	CNc1ccc2c(Nc3ccc(NS(C)(=O)=O)cc3OC)c3ccccc3nc2c1
5.6	7.02	COc1cc(NS(C)(=O)=O)ccc1Nc1c2ccccc2nc2c(-c3ccccc3)cccc12
5.04	–	COc1cc(NS(C)(=O)=O)ccc1Nc1c2ccccc2nc2c(C(=O)N(C)C)cccc12
6.03	7.39	COc1cc(NS(C)(=O)=O)ccc1Nc1c2ccccc2nc2c(C)cccc12
5.54	7.05	COc1cc(NS(C)(=O)=O)ccc1Nc1c2ccccc2nc2cc(F)ccc12
5.09	5.53	COc1cc(NS(C)(=O)=O)ccc1Nc1c2ccccc2nc2cnccc12
5.2	5.05	COc1cc(NS(C)(=O)=O)ccc1Nc1c2ccccc2nc2c([N+](=O)[O-])cccc12
5.65	5.94	COc1cc(NS(C)(=O)=O)ccc1Nc1c2ccccc2nc2cc(C#N)ccc12
5.4	6.3	COc1cc(NS(C)(=O)=O)ccc1Nc1c2ccccc2nc2c(C(=O)NCCCO)cccc12
5.01	4.87	COc1cc(NS(C)(=O)=O)ccc1Nc1c2ccccc2nc2c(C#N)cccc12
5.95	7.37	COc1cc(NS(C)(=O)=O)ccc1Nc1c2ccccc2nc2ccc(N)cc12
5.74	7.36	COc1cc(NS(C)(=O)=O)ccc1Nc1c2ccccc2nc2c(OCCO)cccc12
5.24	6.24	COc1cc(NS(C)(=O)=O)ccc1Nc1c2ccccc2nc2cc(C(F)(F)F)ccc12
5.39	–	COc1cc(NS(C)(=O)=O)ccc1Nc1c2ccccc2nc2c(C(=O)NCC(N)=O)cccc12
6.06	6.84	COc1cc(NS(C)(=O)=O)ccc1Nc1c2ccccc2nc2cc(Cl)ccc12
5.54	–	CNC(=O)c1cccc2c(Nc3ccc(NS(C)(=O)=O)cc3OC)c3ccccc3nc12
5.65	–	COc1cc(NS(C)(=O)=O)ccc1Nc1c2ccccc2nc2cc([N+](=O)[O-])ccc12
5.7	6.6	COc1cc(NS(C)(=O)=O)ccc1Nc1c2ccccc2nc2ccc(I)cc12
